Source: patent publication US9328095B2, “Heteroaryl linked quinolinyl modulators of RORgammat” (Janssen Pharmaceutica NV, priority 2013, dated 2016)

Assays:
[1] = biological target: T1, wild type human RORγt LBD fused to the DNA binding domain of the GAL4 protein (Homo sapiens, UniProt P51449); assay: RORγt reporter assay; type: cell-based; settings: HEK293T cells
T1 construct: expressed in transfected cells; host or cells: HEK293T
T1 sequence (P51449 258-518): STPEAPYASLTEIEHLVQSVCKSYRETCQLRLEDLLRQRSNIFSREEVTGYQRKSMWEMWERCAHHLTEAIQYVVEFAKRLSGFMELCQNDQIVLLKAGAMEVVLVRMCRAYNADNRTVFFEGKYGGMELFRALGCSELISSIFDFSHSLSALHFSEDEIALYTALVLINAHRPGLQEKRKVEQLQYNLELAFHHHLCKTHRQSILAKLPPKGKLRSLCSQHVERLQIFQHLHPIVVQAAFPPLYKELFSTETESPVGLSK
From the text: A reporter assay was used to test functional activity of RORγt modulatory compounds on transcriptional activation driven by the RORγt LBD. Cells used in the assay were co-transfected with two constructs. The first construct, pBIND-RORγt LBD, contained the wild type human RORγt LBD fused to the DNA binding domain of the GAL4 protein. The second construct, pGL4.31 (Promega Cat no. C935A), contained multiple GAL4 responsive DNA elements upstream of firefly luciferase. […] The mutant construct was called pBIND-RORγt-AF2.
The pBIND vector contains the GAL4 DNA Binding Domain (GAL4 DBD) and the renilla luciferase gene under control of the SV40 promoter. […]
The reporter assay was performed by transiently transfecting HEK293T cells with 5 μg of pBIND-RORγt LBD or pBIND-RORγt LBD-AF2 and 5 μg pGL4.31 (Promega Cat no. C935A) using Fugene 6 (Invitrogen Cat no. E2691) at a 1:6 ratio of DNA: Fugene 6 in a T-75 flask in which cells were at least 80% confluent. […] Dual Glo Luciferase Reagent (50 μL/well) was then added and firefly luciferase luminescence was read on an Envision after a ten minute incubation. Finally, Stop and Glo reagent (50 μL/well) was added and renilla luciferase luminescence was read on an Envision after a ten minute incubation. To calculate the effect of compounds on RORγt activity, the ratio of firefly to renilla luciferase was determined and plotted against compound concentration. […]

[2] = test system: IL-17 production by CD4 T cells; assay: Human Th17 assay; type: cell-based; settings: 3 days
From the text: The human Th17 assay tests the effect of RORγt modulatory compounds on IL-17 production by CD4 T cells under conditions which favor Th17 differentiation.
Total CD4^+ T cells were isolated from the peripheral blood mononuclear cells (PBMC) of healthy donors using a CD4^+ T cell isolation kit II, following the manufacturer's instructions (Miltenyi Biotec). Cells were resuspended in a medium of RPMI-1640 supplemented with 10% fetal bovine serum, penicillin, streptomycin, glutamate, and β-mercaptoethanol and were added to 96-well plates at 1.5×10^5 per 100 μL per well. 50 μL of compound at titrated concentrations in DMSO were added into each well at final DMSO concentration at 0.2%. Cells were incubated for 1 hour, then 50 μL of Th17 cell differentiation medium was added to each well. The final concentrations of antibodies and cytokines (R&D Systems) in differentiation medium were: 3×10^6/mL anti-CD3/CD28 beads (prepared using human T cell activation/expansion kit, Miltenyi Biotec), 10 μg/mL anti-IL4, 10 μg/mL anti-IFNγ, 10 ng/mL IL1β, 10 ng/mL IL23, 50 ng/mL IL6, 3 ng/mL TGFβ and 20 U/mL IL2. Cells were cultured at 37° C. and 5% CO2 for 3 days. Supernatants were collected and the accumulated IL-17 in culture was measured by using MULTI-SPOT® Cytokine Plate following manufacture's instruction (Meso Scale Discovery). The plate was read using Sector Imager 6000, and IL-17 concentration was extrapolated from the standard curve. The IC50s were determined by GraphPad.

[3] = biological target: T2, human RORγt ligand binding domain (RORγt LBD) (Homo sapiens, UniProt P51449); assay: RORγt ThermoFluor assay
T2 construct: His-tag (N); TurboTEV protease cleavage site (ENLYFQG) (N); made in house; host or cells: E. coli (pHIS1, modified pET vector)
T2 sequence (P51449 with tags, fused parts or gaps): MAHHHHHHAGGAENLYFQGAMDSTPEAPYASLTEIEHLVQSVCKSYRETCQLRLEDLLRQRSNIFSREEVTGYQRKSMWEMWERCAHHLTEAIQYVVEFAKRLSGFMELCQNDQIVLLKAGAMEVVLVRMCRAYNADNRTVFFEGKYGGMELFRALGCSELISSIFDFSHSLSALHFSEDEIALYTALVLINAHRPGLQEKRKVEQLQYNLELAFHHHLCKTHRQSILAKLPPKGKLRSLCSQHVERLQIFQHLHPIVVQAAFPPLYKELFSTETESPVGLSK
Experimental: This approach is applicable to a wide variety of systems, and rigorous in theoretical interpretation through quantitation of equilibrium binding constants (KD).
The shift in the melting point described as a ΔTm is proportional to the concentration and affinity of the ligand. The compound potency may be compared as a rank order of either ΔTm values at a single compound concentration or in terms of KD values, estimated from concentration response curves.
ThermoFluor® experiments were carried out using instruments owned by Janssen Research and Discovery, L.L.C. through its acquisition of 3-Dimensional Pharmaceuticals, Inc. 1,8-ANS (Invitrogen) was used as a fluorescent dye. […]
Bar-coded assay plates are robotically loaded onto a thermostatically controlled PCR-type thermal block and then heated at a typical ramp-rate of 1° C./min for all experiments. Fluorescence was measured by continuous illumination with UV light (Hamamatsu LC6) supplied via fiber optic and filtered through a band-pass filter (380-400 nm; >6 OD cutoff). Fluorescence emission of the entire 384-well plate was detected by measuring light intensity using a CCD camera (Sensys, Roper Scientific) filtered to detect 500±25 nm, resulting in simultaneous and independent readings of all 384 wells. […]

SMILES | IC50 [2] [nM] | also measured
CCN(CC)c1nc2ccc(C(O)(c3ccccn3)c3cncn3C)cc2c(C#N)c1Oc1ccccc1 (single isomer, unassigned) [Example 5c] |  | inhibition at 6 µM ([1]; HEK-293T, 6 μM): 103%
Cn1cncc1C(O)(c1ccc(C(F)(F)F)nc1)c1ccc2nc(N3CCCC3)c(Oc3ccc(C#N)cc3)c(Cl)c2c1 (stereo not drawn) [Example 2a, 4-((4-Chloro-6-(hydroxy(1-methyl-1H-imidazol-5-yl)(6-(trifluoromethyl)pyridin-3-yl)methyl)-2-(pyrrolidin-1-yl)quinolin-3-yl)oxy)benzonitrile] | 88 | 
Cn1cncc1C(O)(c1ccc(C(F)(F)F)nc1)c1ccc2nc(N3CCCC3)c(Oc3ccc(C#N)cc3)c(Cl)c2c1 (stereo not drawn) [Example 2b] | 320 | 
Cn1cncc1C(O)(c1ccc(C(F)(F)F)nc1)c1ccc2nc(N3CCCC3)c(Oc3ccc(C#N)cc3)c(Cl)c2c1 (stereo not drawn) [Example 2c] | 100 | 
CC(C)(C)OC(=O)N(c1ccccc1)c1c(Cl)nc2ccc(C(O)(c3cccnc3)c3cccc(Cl)c3)cc2c1Cl (stereo not drawn) [Example 7, tert-Butyl (2,4-dichloro-6-((3-chlorophenyl)(hydroxy)(pyridin-3-yl)methyl)quinolin-3-yl)(phenyl)carbamate] |  | Kd [3]: 23000 nM; IC50 [1]: 1400 nM
